For assay [1], the target named is Muscarinic acetylcholine receptor M3 (Homo sapiens, UniProt P20309). Briefly: PDSP Secondary Binding target: CHRM3 - Compounds are tested at 10 uM concentration, plate are incubated at room temperature in the dark for 90 minutes. Reaction are stopped by vacuum filtration onto 0.3% polyethyleneimine soaked filter mats using Filtermate harvester. Scintillation cocktail is then melted onto microwave-dried filters on a hot plate and the radio activity is counted in Microbia counter.

Assay [2] concerns the target T1, 5-hydroxytryptamine receptor 3A (Homo sapiens, UniProt P46098).
T1 sequence (P46098 whole entry): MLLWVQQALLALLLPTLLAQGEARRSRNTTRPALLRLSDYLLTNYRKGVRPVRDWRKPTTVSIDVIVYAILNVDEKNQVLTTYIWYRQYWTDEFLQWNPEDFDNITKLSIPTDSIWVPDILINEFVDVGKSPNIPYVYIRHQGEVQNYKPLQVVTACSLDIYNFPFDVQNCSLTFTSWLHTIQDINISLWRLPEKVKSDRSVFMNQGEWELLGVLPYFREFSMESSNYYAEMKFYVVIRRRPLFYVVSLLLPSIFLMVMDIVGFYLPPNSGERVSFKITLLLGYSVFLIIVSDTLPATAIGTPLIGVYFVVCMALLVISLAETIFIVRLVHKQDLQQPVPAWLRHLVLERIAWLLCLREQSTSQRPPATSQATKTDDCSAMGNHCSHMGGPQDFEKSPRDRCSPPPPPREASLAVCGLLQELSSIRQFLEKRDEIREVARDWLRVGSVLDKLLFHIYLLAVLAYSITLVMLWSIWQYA
Description: PDSP Secondary Binding target: HTR3A - Compounds are tested at 10 uM concentration, plate are incubated at room temperature in the dark for 90 minutes. Reaction are stopped by vacuum filtration onto 0.3% polyethyleneimine soaked filter mats using Filtermate harvester. Scintillation cocktail is then melted onto microwave-dried filters on a hot plate and the radio activity is counted in Microbia counter.

Assay [3] has as its target T2, 5-hydroxytryptamine receptor 1A (Homo sapiens, UniProt P08908).
T2 sequence (P08908 whole entry): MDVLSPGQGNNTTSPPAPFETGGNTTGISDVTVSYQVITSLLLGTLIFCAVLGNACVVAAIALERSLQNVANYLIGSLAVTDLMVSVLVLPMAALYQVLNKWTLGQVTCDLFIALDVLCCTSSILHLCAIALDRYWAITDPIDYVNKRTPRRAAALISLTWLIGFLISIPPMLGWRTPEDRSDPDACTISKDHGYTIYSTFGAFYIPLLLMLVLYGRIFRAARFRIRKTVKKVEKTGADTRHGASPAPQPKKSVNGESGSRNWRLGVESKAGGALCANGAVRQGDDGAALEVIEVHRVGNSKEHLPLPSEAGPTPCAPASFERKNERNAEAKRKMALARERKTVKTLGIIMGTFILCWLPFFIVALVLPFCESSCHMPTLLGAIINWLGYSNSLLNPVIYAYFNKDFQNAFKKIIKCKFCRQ
Briefly: PDSP Secondary Binding target: HTR1A - Compounds are tested at 10 uM concentration, plate are incubated at room temperature in the dark for 90 minutes. Reaction are stopped by vacuum filtration onto 0.3% polyethyleneimine soaked filter mats using Filtermate harvester. Scintillation cocktail is then melted onto microwave-dried filters on a hot plate and the radio activity is counted in Microbia counter.

For assay [4], the target named is Sodium-dependent serotonin transporter (Homo sapiens, UniProt P31645). Description: PDSP Secondary Binding target: SLC6A4 - Compounds are tested at 10 uM concentration, plate are incubated at room temperature in the dark for 90 minutes. Reaction are stopped by vacuum filtration onto 0.3% polyethyleneimine soaked filter mats using Filtermate harvester. Scintillation cocktail is then melted onto microwave-dried filters on a hot plate and the radio activity is counted in Microbia counter.

Assay [5] concerns the target T3, Muscarinic acetylcholine receptor M5 (Homo sapiens, UniProt P08912).
T3 sequence (P08912 whole entry): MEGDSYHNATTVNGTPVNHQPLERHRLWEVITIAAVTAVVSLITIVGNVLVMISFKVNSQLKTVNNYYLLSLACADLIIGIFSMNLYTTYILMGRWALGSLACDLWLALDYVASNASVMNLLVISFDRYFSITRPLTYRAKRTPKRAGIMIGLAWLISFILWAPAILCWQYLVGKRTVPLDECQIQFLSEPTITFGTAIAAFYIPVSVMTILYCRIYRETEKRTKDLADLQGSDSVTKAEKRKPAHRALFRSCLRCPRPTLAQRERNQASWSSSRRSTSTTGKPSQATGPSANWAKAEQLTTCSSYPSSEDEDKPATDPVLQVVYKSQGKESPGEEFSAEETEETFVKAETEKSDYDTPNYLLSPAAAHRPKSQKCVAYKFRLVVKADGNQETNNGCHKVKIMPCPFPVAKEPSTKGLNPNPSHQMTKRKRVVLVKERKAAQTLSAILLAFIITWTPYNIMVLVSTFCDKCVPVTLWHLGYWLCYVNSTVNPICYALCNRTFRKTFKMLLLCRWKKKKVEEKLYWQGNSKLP
Description: PDSP Secondary Binding target: CHRM5 - Compounds are tested at 10 uM concentration, plate are incubated at room temperature in the dark for 90 minutes. Reaction are stopped by vacuum filtration onto 0.3% polyethyleneimine soaked filter mats using Filtermate harvester. Scintillation cocktail is then melted onto microwave-dried filters on a hot plate and the radio activity is counted in Microbia counter.

For assay [6], the target named is Beta-3 adrenergic receptor (Homo sapiens, UniProt P13945). Description: PDSP Secondary Binding target: ADRB3 - Compounds are tested at 10 uM concentration, plate are incubated at room temperature in the dark for 90 minutes. Reaction are stopped by vacuum filtration onto 0.3% polyethyleneimine soaked filter mats using Filtermate harvester. Scintillation cocktail is then melted onto microwave-dried filters on a hot plate and the radio activity is counted in Microbia counter.

For assay [7], the target named is T4, Muscarinic acetylcholine receptor M4 (Homo sapiens, UniProt P08173).
T4 sequence (P08173 whole entry): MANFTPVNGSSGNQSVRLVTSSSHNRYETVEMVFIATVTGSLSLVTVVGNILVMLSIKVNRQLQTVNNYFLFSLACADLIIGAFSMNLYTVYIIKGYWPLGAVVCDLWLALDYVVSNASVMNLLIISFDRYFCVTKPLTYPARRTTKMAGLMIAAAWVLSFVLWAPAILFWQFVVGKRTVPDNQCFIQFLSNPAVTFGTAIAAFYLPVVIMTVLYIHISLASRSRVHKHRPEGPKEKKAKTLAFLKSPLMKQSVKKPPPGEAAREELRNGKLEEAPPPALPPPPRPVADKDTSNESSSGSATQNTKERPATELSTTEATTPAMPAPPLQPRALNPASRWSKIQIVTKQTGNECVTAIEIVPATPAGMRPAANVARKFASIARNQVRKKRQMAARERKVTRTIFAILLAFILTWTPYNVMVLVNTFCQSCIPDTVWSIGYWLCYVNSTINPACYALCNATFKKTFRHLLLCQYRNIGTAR
Description: PDSP Secondary Binding target: CHRM4 - Compounds are tested at 10 uM concentration, plate are incubated at room temperature in the dark for 90 minutes. Reaction are stopped by vacuum filtration onto 0.3% polyethyleneimine soaked filter mats using Filtermate harvester. Scintillation cocktail is then melted onto microwave-dried filters on a hot plate and the radio activity is counted in Microbia counter.

As a reminder, the Ki is a dissociation constant, usually derived from enzyme kinetics or from competition with a known ligand. Low readings indicate a stronger hold on the target, high ones a looser hold on the target.

Where a name gives a salt, the structure may show the parent alone.

Chain of Sodium-dependent serotonin transporter (P31645 whole entry): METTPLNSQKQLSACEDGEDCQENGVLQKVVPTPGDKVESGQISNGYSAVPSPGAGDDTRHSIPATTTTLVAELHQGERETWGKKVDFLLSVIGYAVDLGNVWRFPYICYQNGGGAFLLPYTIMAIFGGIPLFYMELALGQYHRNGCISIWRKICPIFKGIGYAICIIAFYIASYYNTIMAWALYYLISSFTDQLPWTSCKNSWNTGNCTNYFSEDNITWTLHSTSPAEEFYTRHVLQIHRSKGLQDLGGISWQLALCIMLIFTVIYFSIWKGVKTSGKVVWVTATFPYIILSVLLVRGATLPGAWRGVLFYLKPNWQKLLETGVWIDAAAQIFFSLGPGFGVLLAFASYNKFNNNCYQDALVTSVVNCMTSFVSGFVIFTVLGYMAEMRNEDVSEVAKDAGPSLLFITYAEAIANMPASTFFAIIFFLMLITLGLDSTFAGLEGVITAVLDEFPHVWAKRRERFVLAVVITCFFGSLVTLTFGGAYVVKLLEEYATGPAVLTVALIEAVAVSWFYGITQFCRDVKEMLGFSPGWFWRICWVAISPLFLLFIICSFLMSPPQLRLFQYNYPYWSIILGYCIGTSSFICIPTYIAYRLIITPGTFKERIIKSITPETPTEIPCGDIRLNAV
Chain of Beta-3 adrenergic receptor (P13945 whole entry): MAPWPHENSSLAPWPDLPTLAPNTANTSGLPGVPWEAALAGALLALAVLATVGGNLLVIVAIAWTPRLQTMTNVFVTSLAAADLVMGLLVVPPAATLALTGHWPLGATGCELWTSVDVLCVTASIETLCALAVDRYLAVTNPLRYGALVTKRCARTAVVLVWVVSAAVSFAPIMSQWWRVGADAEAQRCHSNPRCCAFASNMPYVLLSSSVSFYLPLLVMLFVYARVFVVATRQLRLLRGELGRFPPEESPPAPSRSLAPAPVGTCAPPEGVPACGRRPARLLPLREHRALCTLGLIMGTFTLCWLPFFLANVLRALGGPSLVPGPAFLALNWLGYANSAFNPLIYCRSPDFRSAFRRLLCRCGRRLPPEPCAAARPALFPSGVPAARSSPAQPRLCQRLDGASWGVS
Chain of Muscarinic acetylcholine receptor M3 (P20309 whole entry): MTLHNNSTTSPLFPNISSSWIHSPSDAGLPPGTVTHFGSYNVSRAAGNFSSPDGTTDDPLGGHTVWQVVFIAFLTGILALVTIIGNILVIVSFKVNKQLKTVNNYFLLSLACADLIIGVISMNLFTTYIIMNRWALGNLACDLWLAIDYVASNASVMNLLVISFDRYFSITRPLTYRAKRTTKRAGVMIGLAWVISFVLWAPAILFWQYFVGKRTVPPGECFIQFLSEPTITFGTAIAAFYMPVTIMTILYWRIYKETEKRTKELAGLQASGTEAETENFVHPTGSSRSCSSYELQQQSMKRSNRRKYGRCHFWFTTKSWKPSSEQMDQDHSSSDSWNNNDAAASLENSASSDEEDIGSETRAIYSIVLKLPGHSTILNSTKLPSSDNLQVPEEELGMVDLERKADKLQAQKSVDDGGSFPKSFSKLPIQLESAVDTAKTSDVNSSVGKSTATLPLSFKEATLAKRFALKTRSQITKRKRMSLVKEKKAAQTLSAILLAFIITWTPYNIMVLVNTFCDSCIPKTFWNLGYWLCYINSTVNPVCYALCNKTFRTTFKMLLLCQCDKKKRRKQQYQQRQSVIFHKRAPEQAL

Turning to `CN1C2CCC1CC(OC(c1ccc(F)cc1)c1ccc(F)cc1)C2` (centres undefined), the figures for the Ki in assay [1] and in assay [2] were 5.82 nM and 2070 nM, respectively.
`COC(=O)C1=C(C)NC(C)=C(C(=O)OCCCN2CCC(c3ccccc3)(c3ccccc3)CC2)[C@H]1c1cccc([N+](=O)[O-])c1` [NIGULDIPINE]: the Ki is 539 nM in assay [3], 2150 nM in assay [1], 862 nM in assay [4] and 718 nM in assay [5].
In the case of `COc1cccc([C@@H](C)NCCCc2ccccc2Cl)c1` [TECALCET HYDROCHLORIDE], the figures for the Ki in assay [6] and in assay [3] were above 10 µM and 1440 nM, respectively.
`O=c1ccc2ccc(OCCCCN3CCN(c4cccc5sccc45)CC3)cc2[nH]1` [BREXPIPRAZOLE]: the values for the Ki in assay [3], in assay [4] and in assay [2] were 23.2 nM, 65.6 nM and 1530 nM, respectively.
Consider `CCCCN1CCC(COC(=O)c2cc(Cl)c(N)c3c2OCCO3)CC1`, for which the Ki in assay [2] amounted to 1310 nM.
Regarding `CCOC(=O)c1c(C)[nH]c2ccc3c(c12)CN1CCc2cc(OC)ccc2C1O3` (centres undefined), the Ki in assay [1] turned out to be 173 nM; in assay [2], 1660 nM; in assay [7] it was 46.9 nM.
Regarding `CN1CCCC(n2nc(Cc3ccc(Cl)cc3)c3ccccc3c2=O)CC1` (centres undefined) [AZELASTINE HYDROCHLORIDE], the Ki in assay [6] is above 10 µM; in assay [1], above 10000 nM.
Regarding `Clc1cccc(COc2cncc(N3CCNCC3)n2)c1`, the Ki in assay [3] is 7440 nM; in assay [1], 851 nM; in assay [2], 63.7 nM; in assay [7], 444 nM; in assay [5] it was 293 nM.
In assay [3], `C[C@@H](NCCCc1cccc(C(F)(F)F)c1)c1cccc2ccccc12` [CINACALCET HYDROCHLORIDE] yielded a Ki of 1960 nM.
In the case of `O=S1(=O)c2cccc3cccc(c23)N1CCCN1CCN(c2ccc(F)cc2)CC1` [FANANSERIN], the Ki in assay [3] was determined as 518 nM; in assay [4] it was 1100 nM.
Take `CN1CCN(c2ccc(Nc3c4ccccc4nc4ccccc34)cc2)CC1`: the Ki in assay [4] is 1150 nM.
On to `Cc1nc(-c2ccc(-c3ccc(C(=O)N4CCc5cc6c(cc54)C4(CCN(C)CC4)CO6)cc3)c(C)c2)no1` [SB-224289], for which the Ki was found to be 926 nM in assay [1] and 344 nM in assay [5].
As to `CCCCCNC(=N)N/N=C/c1c[nH]c2ccc(OC)cc12` [TEGASEROD MALEATE], the Ki in assay [6] was determined as 4.94 µM; in assay [3] it was 83.9 nM; in assay [2] it was 5840 nM.
On to `Cc1cn2cc(CC(=O)N3CCC4(CC3)CN(Cc3ccc(-n5nccn5)cc3Cl)C4)nc2s1`, for which the Ki in assay [1] came to 1530 nM; in assay [7], 181 nM; in assay [5] it was 662 nM.
`COc1ccc(NS(=O)(=O)c2sc3ccc(Cl)cc3c2C)cc1N1CCNCC1`: the Ki in assay [6] was 2.1 µM; in assay [2], 988 nM.
`CN1C[C@H](C(=O)N[C@]2(C)O[C@@]3(O)[C@@H]4CCCN4C(=O)[C@H](Cc4ccccc4)N3C2=O)C[C@@H]2c3cccc4[nH]cc(c34)C[C@H]21` [DIHYDROERGOTAMINE MESYLATE] yielded an inhibition constant (Ki) in assay [3] of 39.1 nM.
Regarding `Cc1c(P(=S)(c2ccccc2)c2ccccc2)n2ccccc2[n+]1C/C=C/c1ccccc1`, the Ki was determined as 2.05 µM in assay [6], 1140 nM in assay [1], 854 nM in assay [7] and 510 nM in assay [5].
As for `CN(C)C(=O)N[C@H]1CC[C@H](CCN2CCN(c3cccc(Cl)c3Cl)CC2)CC1` [CARIPRAZINE HYDROCHLORIDE], the Ki in assay [7] is 779 nM; in assay [5], 1430 nM.
For `Cc1nc2sccn2c(=O)c1CCN1CCC(=C(c2ccc(F)cc2)c2ccc(F)cc2)CC1` [RITANSERIN], the affinity in assay [4], expressed as Ki, was 568 nM.
Still for that read-out and setting: under `CCc1cc2c(cc1CC)CC(NC[C@H](O)c1ccc(O)c3[nH]c(=O)ccc13)C2` [INDACATEROL] stands 770 nM.
The molecule `Cc1cc(C)cc(-c2cnc3cc(Cl)c(-c4cccc(O)c4)cc3c2OCCCN)c1` displayed a Ki in assay [6] of 2.78 µM.
Take `CCc1ccc(OCc2ccccc2C(=O)Nc2ccc3nc(C)cc(N)c3c2)cc1`: the Ki in assay [6] is 6.31 µM; in assay [7] it was 1960 nM.
Take `S=C(NCCCc1c[nH]cn1)NCCCN(Cc1ccc(Cl)c(Cl)c1)c1ccc(Br)cn1`: the values for the Ki in assay [4] and in assay [5] were 209 nM and 491 nM, respectively.
Consider `CN1CCC(=C2c3ccccc3CC(=O)c3sccc32)CC1` [KETOTIFEN FUMARATE], for which the Ki stood at 339 nM in assay [2], 917 nM in assay [7] and 98.5 nM in assay [5].
For `NCCc1cn(S(=O)(=O)c2c(Cl)nc3sccn23)c2ccccc12`, in assay [2], the Ki worked out at 662 nM.
The molecule `C[C@H](Cc1cc2c(c(C(N)=O)c1)N(CCCO)CC2)NCCOc1ccccc1OCC(F)(F)F` [SILODOSIN] showed a Ki in assay [3] of 47 nM.
As to `COc1ccc(NC(=O)c2ccc(-c3ccc(-c4noc(C)n4)cc3C)cc2)cc1OCCN(C)C`, in assay [4], the Ki is 833 nM.
Consider `COc1cc(-n2cnc3cc(-c4ccc(Cl)cc4)sc3c2=O)ccc1OCCN1CCCC1`, for which the Ki in assay [1] was 4130 nM; in assay [4] it was above 10000 nM; in assay [7] it was 1700 nM; in assay [5] it was 2640 nM.
The molecule `OCc1cc(C(O)CNCCCCCCOCCCCc2ccccc2)ccc1O` (centres undefined) [SALMETEROL] came in with a Ki in assay [5] of 971 nM.
On to `Cc1nn(C)c(C)c1-c1cccc2c1CC[C@H](N(C)C)C2`, for which the Ki was determined as 2420 nM in assay [3], 261 nM in assay [2] and 308 nM in assay [5].
